In the supplement of paper PMC10733146:

How the values were obtained:
Assay in all cases: viability relative to DMSO control (fraction); higher = less drug effect (more viable cells)
Conditions in all cases: 48 h
[1] = system: primary AML patient cells (S085)
Outline: (§1)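 In 384-well plates with compounds pre-plated at five concentrations (one well per concentration), primary mononuclear tumour cells were plated at 4 × 10^4 cells per well. The cells came from blood or bone marrow by Ficoll isolation or from processed lymph node, and were used fresh or cryopreserved. Culture ran for 48 h at 37 °C and 5% CO2 in RPMI-1640 containing penicillin/streptomycin, L-glutamine and human serum. Viability was read as CellTiter-Glo luminescence, normalised to the median of 16 inner DMSO wells.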

[2] = system: primary AML patient cells (S027)
Outline: as §1

[3] = system: primary CLL patient cells (S043)
Outline: as §1

[4] = system: primary DLBCL patient cells (S049)
Outline: as §1

[5] = system: primary AML patient cells (S037)
Outline: as §1

[6] = system: primary AML patient cells (S007)
Outline: as §1

[7] = system: primary AML patient cells (S006)
Outline: as §1

[8] = system: primary T-NHL patient cells (S058)
Outline: as §1

[9] = system: primary AML patient cells (S011)
Outline: as §1

[10] = system: primary AML patient cells (S012)
Outline: as §1

[11] = system: primary AML patient cells (S002)
Outline: as §1

[12] = system: primary AML patient cells (S019)
Outline: as §1

[13] = system: primary AML patient cells (S025)
Outline: as §1

[14] = system: primary AML patient cells (S091)
Outline: as §1

[15] = system: primary AML patient cells (S089)
Outline: as §1

[16] = system: primary AML patient cells (S017)
Outline: as §1

[17] = system: primary AML patient cells (S021)
Outline: as §1

[18] = system: primary DLBCL patient cells (S076)
Outline: as §1

[19] = system: primary AML patient cells (S081)
Outline: as §1

`Cc1nc(Nc2ncc(C(=O)Nc3c(C)cccc3Cl)s2)cc(N2CCN(CCO)CC2)n1` [Dasatinib] showed a viability ([1]; 0.0016 µM) of 0.943, a viability ([1]; 0.008 µM) of 0.736 and a viability ([1]; 0.04 µM) of 0.691. The viability ([1]; 0.2 µM) was 0.605, the viability ([1]; 1 µM) was 0.91 and the viability ([2]; 0.0016 µM) was 1.06. It also gave a viability ([3]; 0.0016 µM) of 1.31, a viability ([3]; 0.008 µM) of 1.2 and a viability ([3]; 0.04 µM) of 0.67. The viability ([3]; 0.2 µM) was 0.595, the viability ([3]; 1 µM) was 0.547 and the viability ([4]; 0.0016 µM) was 0.952. It also gave a viability ([4]; 0.008 µM) of 0.83, a viability ([4]; 0.04 µM) of 0.814 and a viability ([4]; 0.2 µM) of 0.497. It also gave a viability ([4]; 1 µM) of 0.33, a viability ([5]; 0.0016 µM) of 1.04 and a viability ([5]; 0.008 µM) of 1.01. It also gave a viability ([5]; 0.04 µM) of 1, a viability ([5]; 0.2 µM) of 0.982 and a viability ([5]; 1 µM) of 1.03. It also gave a viability ([6]; 0.0016 µM) of 0.89, a viability ([6]; 0.008 µM) of 0.964 and a viability ([6]; 0.04 µM) of 0.917. The viability ([6]; 0.2 µM) was 0.837, the viability ([6]; 1 µM) was 0.755 and the viability ([7]; 0.0016 µM) was 0.961. For the same molecule, the viability ([7]; 0.008 µM) was 0.912, the viability ([7]; 0.04 µM) was 0.88 and the viability ([7]; 0.2 µM) was 0.808. It also gave a viability ([8]; 0.0016 µM) of 0.962, a viability ([8]; 0.008 µM) of 0.836 and a viability ([8]; 0.04 µM) of 0.861. It also gave a viability ([8]; 0.2 µM) of 0.834, a viability ([8]; 1 µM) of 0.855 and a viability ([9]; 0.0016 µM) of 1.06. For the same molecule, the viability ([9]; 0.008 µM) was 0.884, the viability ([9]; 0.04 µM) was 0.909 and the viability ([9]; 0.2 µM) was 0.882. It also gave a viability ([9]; 1 µM) of 0.936, a viability ([10]; 0.0016 µM) of 0.993 and a viability ([10]; 0.008 µM) of 0.917. The viability ([10]; 0.04 µM) was 1.01, the viability ([10]; 0.2 µM) was 1 and the viability ([10]; 1 µM) was 1.01. It also gave a viability ([11]; 0.0016 µM) of 0.979, a viability ([11]; 0.008 µM) of 1.04 and a viability ([11]; 0.04 µM) of 0.799. It also gave a viability ([11]; 0.2 µM) of 0.764, a viability ([11]; 1 µM) of 1.04 and a viability ([12]; 0.0016 µM) of 1.14. It also gave a viability ([12]; 0.008 µM) of 1.14, a viability ([12]; 0.04 µM) of 1.07 and a viability ([12]; 0.2 µM) of 0.986. For the same molecule, the viability ([12]; 1 µM) was 1.02, the viability ([13]; 0.0016 µM) was 0.961 and the viability ([13]; 0.008 µM) was 1.02. The viability ([13]; 0.04 µM) was 0.978, the viability ([13]; 0.2 µM) was 0.965 and the viability ([13]; 1 µM) was 1.14. For the same molecule, the viability ([14]; 0.0016 µM) was 0.951, the viability ([14]; 0.008 µM) was 0.924 and the viability ([14]; 0.04 µM) was 0.787. It also gave a viability ([14]; 0.2 µM) of 0.784, a viability ([14]; 1 µM) of 1.29 and a viability ([15]; 0.0016 µM) of 0.976. It also gave a viability ([15]; 0.008 µM) of 1.03, a viability ([15]; 0.04 µM) of 0.576 and a viability ([15]; 0.2 µM) of 0.504. For the same molecule, the viability ([15]; 1 µM) was 0.537, the viability ([16]; 0.0016 µM) was 0.997 and the viability ([16]; 0.008 µM) was 0.859. For the same molecule, the viability ([16]; 0.04 µM) was 0.654, the viability ([16]; 0.2 µM) was 0.689 and the viability ([16]; 1 µM) was 0.711. It also gave a viability ([17]; 0.0016 µM) of 0.964, a viability ([17]; 0.008 µM) of 0.799 and a viability ([17]; 0.04 µM) of 0.73. It also gave a viability ([17]; 0.2 µM) of 0.615, a viability ([17]; 1 µM) of 0.638 and a viability ([18]; 0.0016 µM) of 0.835. It also gave a viability ([18]; 0.008 µM) of 0.672, a viability ([18]; 0.04 µM) of 0.628 and a viability ([18]; 0.2 µM) of 0.532. The viability ([18]; 1 µM) was 0.535, the viability ([19]; 0.0016 µM) was 1.14 and the viability ([19]; 0.008 µM) was 1.01. It also gave a viability ([19]; 0.04 µM) of 0.693, a viability ([19]; 0.2 µM) of 0.54 and a viability ([19]; 1 µM) of 0.764.
Work on `Cc1sc2c(c1C)C(c1ccc(Cl)cc1)=N[C@@H](CC(=O)Nc1ccc(O)cc1)c1nnc(C)n1-2` [OTX015] yielded a viability ([1]; 0.016 µM) of 0.861, a viability ([1]; 0.08 µM) of 0.614 and a viability ([1]; 0.4 µM) of 0.312. The viability ([1]; 2 µM) was 0.191, the viability ([1]; 10 µM) was 0.178 and the viability ([2]; 0.016 µM) was 0.93. The viability ([2]; 0.08 µM) was 0.894, the viability ([2]; 0.4 µM) was 0.73 and the viability ([2]; 2 µM) was 0.536. For the same molecule, the viability ([2]; 10 µM) was 0.408, the viability ([3]; 0.016 µM) was 0.959 and the viability ([3]; 0.08 µM) was 0.963. The viability ([3]; 0.4 µM) was 0.9, the viability ([3]; 2 µM) was 0.76 and the viability ([3]; 10 µM) was 0.762. The viability ([4]; 0.016 µM) was 1.02, the viability ([4]; 0.08 µM) was 0.891 and the viability ([4]; 0.4 µM) was 0.482. The viability ([4]; 2 µM) was 0.2, the viability ([4]; 10 µM) was 0.119 and the viability ([5]; 0.016 µM) was 1.11. The viability ([5]; 0.08 µM) was 0.851, the viability ([5]; 0.4 µM) was 1 and the viability ([5]; 2 µM) was 0.716. For the same molecule, the viability ([5]; 10 µM) was 0.97, the viability ([6]; 0.016 µM) was 1.16 and the viability ([6]; 0.08 µM) was 1.08. For the same molecule, the viability ([6]; 0.4 µM) was 0.561, the viability ([6]; 2 µM) was 0.335 and the viability ([6]; 10 µM) was 0.24. The viability ([8]; 0.016 µM) was 1.09, the viability ([8]; 0.08 µM) was 0.875 and the viability ([8]; 0.4 µM) was 0.764. For the same molecule, the viability ([8]; 2 µM) was 0.576, the viability ([8]; 10 µM) was 0.591 and the viability ([9]; 0.016 µM) was 1. The viability ([9]; 0.08 µM) was 0.899, the viability ([9]; 0.4 µM) was 0.766 and the viability ([9]; 2 µM) was 0.742. The viability ([9]; 10 µM) was 0.758, the viability ([10]; 0.016 µM) was 0.989 and the viability ([10]; 0.08 µM) was 0.84. For the same molecule, the viability ([10]; 0.4 µM) was 0.565, the viability ([10]; 2 µM) was 0.379 and the viability ([10]; 10 µM) was 0.267. It also gave a viability ([11]; 0.016 µM) of 0.853, a viability ([11]; 0.08 µM) of 0.565 and a viability ([11]; 0.4 µM) of 0.396. It also gave a viability ([11]; 2 µM) of 0.315, a viability ([11]; 10 µM) of 0.317 and a viability ([12]; 0.016 µM) of 1.14. For the same molecule, the viability ([12]; 0.08 µM) was 1.12, the viability ([12]; 0.4 µM) was 1.08 and the viability ([12]; 2 µM) was 0.985. For the same molecule, the viability ([12]; 10 µM) was 0.965, the viability ([13]; 0.016 µM) was 0.87 and the viability ([13]; 0.08 µM) was 0.971. For the same molecule, the viability ([13]; 0.4 µM) was 0.767, the viability ([13]; 2 µM) was 0.629 and the viability ([13]; 10 µM) was 0.549. It also gave a viability ([14]; 0.016 µM) of 0.741, a viability ([14]; 0.08 µM) of 0.478 and a viability ([14]; 0.4 µM) of 0.276. The viability ([14]; 2 µM) was 0.25, the viability ([14]; 10 µM) was 0.254 and the viability ([15]; 0.016 µM) was 0.894. The viability ([15]; 0.08 µM) was 0.848, the viability ([15]; 0.4 µM) was 0.546 and the viability ([15]; 2 µM) was 0.398. For the same molecule, the viability ([15]; 10 µM) was 0.311, the viability ([16]; 0.016 µM) was 0.96 and the viability ([16]; 0.08 µM) was 0.937. It also gave a viability ([16]; 0.4 µM) of 0.573, a viability ([16]; 2 µM) of 0.391 and a viability ([16]; 10 µM) of 0.354. The viability ([17]; 0.016 µM) was 0.937, the viability ([17]; 0.08 µM) was 1.02 and the viability ([17]; 0.4 µM) was 0.894. For the same molecule, the viability ([17]; 2 µM) was 0.815, the viability ([17]; 10 µM) was 0.634 and the viability ([18]; 0.016 µM) was 1.05. It also gave a viability ([18]; 0.08 µM) of 0.942, a viability ([18]; 0.4 µM) of 0.802 and a viability ([18]; 2 µM) of 0.699. The viability ([18]; 10 µM) was 0.6, the viability ([19]; 0.016 µM) was 0.847 and the viability ([19]; 0.08 µM) was 0.793. For the same molecule, the viability ([19]; 0.4 µM) was 0.475, the viability ([19]; 2 µM) was 0.257 and the viability ([19]; 10 µM) was 0.205.
